Our source for the IC50 values is patent US20110190503A1, “Thiazolopyridin-2-yloxy-phenyl and thiazolopyrazin-2-yloxy-phenyl amines as modulators of leukotriene A4 hydrolase” (Janssen Pharmaceutical NV, priority 2008, published 2011).

The target in assay [1] is T1, recombinant human LTA4 hydrolase (rhLTA4H) (Homo sapiens, UniProt P09960).
T1 construct: made in house; host or cells: Spodoptera frugiperda (Sf-9) cells, recombinant baculovirus (pFastBac1)
T1 sequence (P09960 1-611): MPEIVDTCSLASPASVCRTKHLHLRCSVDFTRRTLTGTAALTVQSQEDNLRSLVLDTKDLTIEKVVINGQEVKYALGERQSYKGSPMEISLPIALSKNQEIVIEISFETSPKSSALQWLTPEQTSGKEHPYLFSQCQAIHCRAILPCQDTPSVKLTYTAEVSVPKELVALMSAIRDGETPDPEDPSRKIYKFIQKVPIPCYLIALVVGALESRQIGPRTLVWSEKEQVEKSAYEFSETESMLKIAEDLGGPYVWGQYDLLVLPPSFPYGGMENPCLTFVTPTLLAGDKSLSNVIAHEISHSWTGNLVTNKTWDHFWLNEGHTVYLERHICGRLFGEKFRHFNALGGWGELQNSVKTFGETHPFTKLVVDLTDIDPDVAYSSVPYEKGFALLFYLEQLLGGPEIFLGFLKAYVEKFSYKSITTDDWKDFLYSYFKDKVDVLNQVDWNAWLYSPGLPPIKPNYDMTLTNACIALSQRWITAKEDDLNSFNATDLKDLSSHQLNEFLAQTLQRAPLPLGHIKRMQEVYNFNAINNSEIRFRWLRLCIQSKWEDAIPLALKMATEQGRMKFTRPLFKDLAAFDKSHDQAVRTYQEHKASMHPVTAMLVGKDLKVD
The assay can be described thus: Recombinant human LTA4 hydrolase assay for LTA4 hydrolase inhibitor activity. In kind it is biochemical. As to conditions: rhLTA4H, LTA4 substrate, LTB4 by immunoassay; single determination or average; read-out: IC50. The method, boiled down: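 LTB4 formed from LTA4 substrate (free acid from the methyl ester) was quantified by enzyme immunoassay after a 30 min rt reaction. Enzyme was 10 ng Sf-9-expressed human LTA4 hydrolase, pre-incubated 10 min with compound.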

The test system of assay [2] is LTB4 production by calcium ionophore-stimulated murine blood. The assay can be described thus: LTB4 production by calcium ionophore-stimulated murine blood for LTA4H inhibitor activity. The note with it: Mus musculus; murine blood diluted 1 in 15, calcium ionophore A23187, LTB4 by immunoassay; read-out: IC50. In kind it is cell-based, CD-1 mice. An outline of the steps: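 LTB4 quantified by EIA in supernatants after murine (CD-1) heparinized whole blood was exposed to compound for 15 min, then to 7 μg/mL (final) A23187 for 30 min, all at 37° C. Reported values: single runs or means; three or more runs include SD.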

`F[C@@H]1CCN(Cc2ccc(Oc3nc4ncccc4s3)cc2)C1` [Example 87, 2-(4-{[(3R)-3-Fluoropyrrolidin-1-yl]methyl}phenoxy)[1,3]thiazolo[4,5-b]pyridine]: the results for the IC50 in assay [1] and in assay [2] were 30 nM and 24 nM, respectively.

For `CC(=O)N[C@H]1C[C@H]2CC[C@@H](C1)N2Cc1ccc(Oc2nc3nccc(C)c3s2)cc1` [Example 289, meso-endo-N-[8-{4-[(7-Methyl[1,3]thiazolo[4,5-b]pyridin-2-yl)oxy]benzyl}-8-azabicyclo[3.2.1]oct-3-yl]acetamide], the values for the concentration for half-maximal inhibition (IC50) in assay [1] and in assay [2] were 9 nM and 542 nM, respectively.

Turning to `OC1(c2cccc(C(F)(F)F)c2)CCN(CCOc2ccc(Oc3nc4nccnc4s3)cc2)CC1` [Example 24, 1-{2-[4-([1,3]Thiazolo[4,5-b]pyrazin-2-yloxy)phenoxy]ethyl}-4-[3-(trifluoromethyl)phenyl]piperidin-4-ol], the IC50 (commonly the midpoint of a concentration-inhibition curve) in assay [1] came out at 52 nM; in assay [2] it was 750 nM.

For the compound `Cc1ccc(SC2CCN(CCOc3ccc(Oc4nc5ncccc5s4)cc3)CC2)cc1` [Example 255, 2-[4-(2-{4-[(4-Methylphenyl)sulfanyl]piperidin-1-yl}ethoxy)phenoxy][1,3]thiazolo[4,5-b]pyridine], the IC50 in assay [1] stood at 71 nM; in assay [2], 1300 nM.

Turning to `c1ccc(CC2CCN(Cc3ccc(Oc4nc5ncccc5s4)cc3)CC2)cc1` [Example 102, 2-{4-[(4-Benzylpiperidin-1-yl)methyl]phenoxy}[1,3]thiazolo[4,5-b]pyridine], the IC50 in assay [1] was 15 nM; in assay [2], 210 nM.

As to `OC1(c2cccc(C(F)(F)F)c2)CCN(CCOc2ccc(Oc3nc4ncccc4s3)cc2)CC1` [Example 33, 1-{2-[4-([1,3]Thiazolo[4,5-b]pyridin-2-yloxy)phenoxy]ethyl}-4-[3-(trifluoromethyl)phenyl]piperidin-4-ol], the half-inhibitory concentration (IC50) came out at 17 nM in assay [1] and 480 nM in assay [2].

With `COCCN(C)CCOc1ccc(Oc2nc3nccc(C)c3s2)cc1` [Example 160, N-Methyl-2-(methyloxy)-N-[2-({4-[(7-methyl[1,3]thiazolo[4,5-b]pyridin-2-yl)oxy]phenyl}oxy)ethyl]ethanamine], the IC50 came to 99 nM in assay [1] and 180 nM in assay [2].

As for `O=C(O)CCNCc1ccc(Oc2nc3ncccc3s2)cc1` [Example 275, N-[4-([1,3]Thiazolo[4,5-b]pyridin-2-yloxy)benzyl]-beta-alanine], the results for the IC50 in assay [1] and in assay [2] were 47 nM and 3300 nM, respectively.

As for `NC(=O)N1C[C@H]2C[C@@H]1CN2CCOc1ccc(Oc2nc3ncccc3s2)cc1` [Example 268, (1R,4R)-5-{2-[4-([1,3]Thiazolo[4,5-b]pyridin-2-yloxy)phenoxy]ethyl}-2,5-diazabicyclo[2.2.1]heptane-2-carboxamide], the IC50 is 32 nM in assay [1] and 91 nM in assay [2].

For `NC(=O)N1CC2CN(Cc3ccc(Oc4nc5ncccc5s4)cc3)CC2C1` (stereo not drawn) [Example 277, 5-[4-([1,3]Thiazolo[4,5-b]pyridin-2-yloxy)benzyl]hexahydropyrrolo[3,4-c]pyrrole-2(1H)-carboxamide], the IC50 was determined as 7 nM in assay [1] and 900 nM in assay [2].

For `NC(=O)N[C@H]1C[C@H]2CC[C@@H](C1)N2CCc1ccc(Oc2nc3ncccc3s2)cc1` [Example 77, meso-1-[(3-endo)-8-{2-[4-([1,3]Thiazolo[4,5-b]pyridin-2-yloxy)Phenyl]ethyl}-8-azabicyclo[3.2.1]oct-3-yl]urea], the IC50 in assay [1] was 2.9 nM; in assay [2], 190 nM.

In the case of `c1cnc2nc(Oc3ccc(OCCN4CCC(Oc5ccncc5)CC4)cc3)sc2c1` [Example 13, 2-(4-{2-[4-(Pyridin-4-yloxy)piperidin-1-yl]ethoxy}phenoxy)[1,3]thiazolo[4,5-b]pyridine], the figures for the 50% inhibitory concentration (IC50) in assay [1] and in assay [2] were 13 nM and 120 nM, respectively.

Take `c1cncc(OC2CCN(Cc3ccc(Oc4nc5ncccc5s4)cc3)CC2)c1` [Example 98, 2-(4-{[4-(Pyridin-3-yloxy)piperidin-1-yl]methyl}phenoxy)[1,3]thiazolo[4,5-b]pyridine]: the IC50 in assay [1] worked out at 6 nM; in assay [2] it was 9 nM.

On to `C[C@H]1CCCCN1Cc1ccc(Oc2nc3ncccc3s2)cc1` [Example 90, 2-(4-{[(2S)-2-Methylpiperidin-1-yl]methyl}phenoxy)[1,3]thiazolo[4,5-b]pyridine], for which the figures for the IC50 in assay [1] and in assay [2] were 0.8 nM and 23 nM, respectively.

As to `Cc1ccnc2nc(Oc3ccc(OCCN4CC5CN(C(=O)C6CCC6)CC5C4)cc3)sc12` (stereo not drawn) [Example 146, 2-(4-{2-[5-(Cyclobutylcarbonyl)hexahydropyrrolo[3,4-c]pyrrol-2(1H)-yl]ethoxy}phenoxy)-7-methyl[1,3]thiazolo[4,5-b]pyridine], the half-inhibitory concentration (IC50) worked out at 97 nM in assay [1] and 450 nM in assay [2].

For the compound `CC(=O)N1CC2CC(CN(Cc3ccc(Oc4nc5ncccc5s4)cc3)C2)C1` [Example 294, meso-2-(4-{[7-Acetyl-3,7-diazabicyclo[3.3.1]non-3-yl]methyl}phenoxy)[1,3]thiazolo[4,5-b]pyridine], the IC50 in assay [1] stood at 23 nM; in assay [2], 79 nM.

Regarding `CC(=O)N1C[C@@H]2C[C@H]1CN2Cc1ccc(Oc2nc3nccc(C)c3s2)cc1` [Example 125, 2-(4-{[(1S,4S)-5-Acetyl-2,5-diazabicyclo[2.2.1]hept-2-yl]methyl}phenoxy)-7-methyl[1,3]thiazolo[4,5-b]pyridine], the IC50 turned out to be 12 nM in assay [1] and 19 nM in assay [2].

Take `c1cnc2nc(Oc3ccc(CN4CCC(N5CCCCC5)CC4)cc3)sc2c1` [Example 256, 1′-[4-([1,3]Thiazolo[4,5-b]pyridin-2-yloxy)benzyl]-1,4′-bipiperidine]: the IC50 in assay [1] was determined as 87 nM; in assay [2], 178 nM.

With `NC(=O)N1C[C@H]2CC[C@@H](C1)N2CCc1ccc(Oc2nc3cccnc3s2)cc1` [Example 71, meso-8-{2-[4-([1,3]Thiazolo[5,4-b]pyridin-2-yloxy)phenyl]ethyl}-3,8-diazabicyclo[3.2.1]octane-3-carboxamide], the 50% inhibitory concentration (IC50) is 81 nM in assay [1] and 280 nM in assay [2].

As for `CC(=O)N1[C@@H]2CC[C@H]1CN(CCOc1ccc(Oc3nc4ncccc4s3)cc1)C2` [Example 162, meso-2-{[4-({2-[8-Acetyl-3,8-diazabicyclo[3.2.1]oct-3-yl]ethyl}oxy)phenyl]oxy}[1,3]thiazolo[4,5-b]pyridine], the IC50 was determined as 3 nM in assay [1] and 12 nM in assay [2].

In the case of `CC(=O)N[C@@H]1C[C@H]2CC[C@@H](C1)N2CCOc1ccc(Oc2nc3cccnc3s2)cc1` [Example 153, meso-N-[(3-exo)-8-{2-[4-([1,3]Thiazolo[5,4-b]pyridin-2-yloxy)phenoxy]ethyl}-8-azabicyclo[3.2.1]oct-3-yl]acetamide], the IC50 stood at 35 nM in assay [1] and 360 nM in assay [2].

Regarding `CC(=O)N[C@H]1C[C@H]2CC[C@@H](C1)N2Cc1ccc(Oc2nc3cccnc3s2)cc1` [Example 119, meso-N-{(3-endo)-8-[4-([1,3]Thiazolo[5,4-b]pyridin-2-yloxy)benzyl]-8-azabicyclo[3.2.1]oct-3-yl}acetamide], the IC50 came out at 70 nM in assay [1] and 770 nM in assay [2].

For the compound `c1ccc(OC2CCN(Cc3ccc(Oc4nc5ncccc5s4)cc3)CC2)cc1` [Example 260, 2-{4-[(4-Phenoxypiperidin-1-yl)methyl]phenoxy}[1,3]thiazolo[4,5-b]pyridine], the values for the half-inhibitory concentration (IC50) in assay [1] and in assay [2] were 8 nM and 43 nM, respectively.

`CCCCN(CC)CCc1ccc(Oc2nc3ncc(C)cc3s2)cc1` [Example 178, N-Ethyl-N-(2-{4-[(6-methyl[1,3]thiazolo[4,5-b]pyridin-2-yl)oxy]phenyl}ethyl)butan-1-amine]: the figures for the IC50 in assay [1] and in assay [2] were 11 nM and 260 nM, respectively.
